Values quoted from earlier work, collected in the PKSmart pharmacokinetics tables (Seal et al. 2025).

Test: Lombardo, Berellini, Obach 2018, Drug Metab Dispos 46:1466, doi 10.1124/dmd.118.082966
Details: human; for MRT / Vd / clearance / half-life: in vivo, iv; for fraction unbound: plasma

| Compound | MRT [h] | Vd [L/kg] | clearance [mL/min/kg] | half-life [h] | fraction unbound |
| --- | --- | --- | --- | --- | --- |
| C=Cc1c(C)c2[nH]c1=Cc1[nH]c(c(=CCC(=O)OC)c1C)=Cc1[nH]c(c(C)c1CCC(=O)O)C=C1NC(=C3C=CC(C(=O)OC)=C(C(=O)OC)[C@@]13C)C=2 | 4.9 | 0.51 | 1.73 | 6.06 |  |
| CC[N+]1(CC)CCC(=C(c2ccccc2)c2ccccc2)[C@@H]1C | 2.5 | 1.87 | 12.5 | 2.13 |  |
| CNC(=O)N(N(CCCl)S(C)(=O)=O)S(C)(=O)=O | 0.63 | 0.88 | 23.1 | 0.49 |  |
| CCNC(=O)C1C[C@@H](n2ccc3c(N[C@H](CC)Cc4sccc4Cl)ncnc32)[C@H](O)[C@@H]1O (stereo partly specified) | 1.18 | 0.84 | 12 | 1.33 | 0.03 |
| CC(O)C(CO)NC(=O)C1CSSCC(NC(=O)C(N)Cc2ccccc2)C(=O)NC(Cc2ccccc2)C(=O)NC(Cc2c[nH]c3ccccc23)C(=O)NC(CCCCN)C(=O)NC(C(C)O)C(=O)N1 (stereo unspecified) | 1.3 | 0.19 | 2.38 | 1.7 | 0.35 |
| COc1cccc2c1C(=O)c1c(O)c3c(c(O)c1C2=O)C[C@@](O)(C(C)=O)C[C@@H]3O[C@H]1C[C@H](N)[C@H](O)[C@H](C)O1 | 11.2 | 32 | 47.6 | 14.2 | 0.06 |
| CC(C(=O)O)c1cccc(Oc2ccccc2)c1 (stereo unspecified) | 2.8 | 0.1 | 0.6 | 2.24 | 0.02 |
| CC(C)=c1nc(N(C)S(C)(=O)=O)nc(-c2ccc(F)cc2)c1=CC[C@@H](O)C[C@@H](O)CC(=O)O | 2.6 | 1.7 | 11 | 2 |  |
| CN1CCN(C(c2ccccc2)c2ccccc2)CC1 | 15.5 | 16.5 | 14.5 | 13.5 |  |
| COC(=O)c1ccc2c(C(=Nc3ccc(N(C)C(=O)CN4CCN(C)CC4)cc3)c3ccccc3)c(O)[nH]c2c1 | 12.6 | 15 | 19.9 | 9.5 | 0.02 |
| O=C(/C=C/c1ccc(O)c(O)c1)O[C@@H]1[C@H](O)C[C@@](O)(C(=O)O)C[C@H]1OC(=O)/C=C/c1ccc(O)c(O)c1 | 0.3 | 0.63 | 34.6 | 0.57 |  |
| CC(C)OC(=O)CCC/C=C/C[C@@H]1[C@@H](CC[C@@H](O)CCc2ccccc2)[C@H](O)C[C@@H]1O |  |  | 6.7 | 0.28 | 0.1 |
| COc1ccsc1CNCC[C@@]1(c2ccccn2)CCOC2(CCCC2)C1 | 1.9 | 0.78 | 6.89 | 1.8 |  |
| CC(=O)Nc1cccc(-n2c(=O)n(C3CC3)c(=O)c3c(Nc4ccc(I)cc4F)n(C)c(=O)c(C)c32)c1 | 304 | 13.9 | 0.8 | 229 |  |
| Cc1ccc([C@@H]2O[C@H](CO)[C@@H](O)[C@H](O)[C@H]2O)cc1Cc1ccc(-c2ccc(F)cc2)s1 | 7.25 | 1.19 | 2.74 | 10.3 | 0.01 |
| CN(C)CCNC(=O)c1cccc2cc3ccccc3nc12 | 3.49 | 3.41 | 16.3 | 2.08 | 0.03 |
| OCCN(CCc1c[nH]c2ccccc12)Cc1ccc(/C=C/C(O)=NO)cc1 | 4.78 | 2.17 | 7.6 | 12.4 | 0.23 |
| CCC1=C(C)CN(C(=O)NCCc2ccc(S(=O)(=O)NC(=O)N[C@H]3CC[C@H](C)CC3)cc2)C1=O |  | 0.19 | 0.5 | 10 |  |
| Cc1nc(C#Cc2ccnc(Cl)c2)c(C)n1-c1ccc(F)cc1 | 57.4 | 9.7 | 2.8 | 78.9 | 0.01 |
| Cc1onc(-c2ccccc2)c1-c1ccc(S(N)(=O)=O)cc1 | 9.4 | 0.75 | 1.4 | 7.4 | 0.02 |
| Nc1nc(=O)c2c([nH]1)NCC(CNc1ccc(C(=O)NC(CCC(=O)O)C(=O)O)cc1)N2C=O (stereo unspecified) | 0.8 | 0.25 | 5.8 | 1.3 |  |
| CC(=O)OCC1=C(C(=O)O)N2C(=O)C(NC(=O)CSc3ccncc3)[C@H]2SC1 (stereo partly specified) | 0.8 | 0.13 | 2.7 | 1.2 | 0.55 |
| CCC[C@@H]1CC(C(=O)N[C@@H]([C@H]2O[C@H](SC)[C@H](O)[C@@H](O)[C@H]2O)[C@@H](C)O)N(C)C1 (stereo partly specified) | 7.5 | 1 | 2.1 | 5.6 |  |

| Compound | MRT [h] | Vd [L/kg] | clearance [mL/min/kg] | half-life [h] | fraction unbound |
| --- | --- | --- | --- | --- | --- |
| COc1ccccc1N1CCN(CCCNc2cc(=O)n(C)c(=O)n2C)CC1 | 4 | 0.75 | 3.1 | 3.5 |  |
| Cc1c(OCC(F)(F)F)ccnc1C[S+](O)c1nc2ccccc2[n-]1 (stereo unspecified) | 1.1 | 0.28 | 4.4 | 1 |  |
| CC(CCc1ccc2c(c1)OCO2)NCC(O)c1ccc(O)c(C(N)=O)c1 (stereo unspecified) | 8.2 | 7.9 | 16 | 11 |  |
| CCn1cnc(C(=O)NC)c1C(=O)NC | 1 | 0.73 | 12.1 | 0.83 | 0.92 |
| CN1c2ccccc2[C@@H](NCCCCCCC(=O)O)c2ccc(Cl)cc2S1(=O)=O | 1.9 | 0.3 | 2.8 | 1.4 |  |
| CC(=O)C(C#N)C(=O)Nc1ccc(C(F)(F)F)cc1 (stereo unspecified) | 367 | 0.16 | 0.007 | 350 |  |
| Nc1nc(C(=NO)C(=O)NC2C(=O)N3C(C(=O)O)=C(C=C4CCN([C@@H]5CCNC5)C4=O)CS[C@H]23)ns1 (stereo partly specified) | 3 | 0.27 | 1.5 | 3.3 | 0.62 |
| CC(=O)OCC1=C(C(=O)O)N2C(=O)C(NC(=O)Cc3cccs3)[C@H]2SC1 (stereo partly specified) | 0.65 | 0.07 | 1.8 | 0.95 | 0.22 |
| CC(C)C[C@H](NC(=O)CNC(=O)c1cc(Cl)ccc1Cl)B(O)O | 119 | 3.61 | 0.5 | 97 | 0.01 |
| C[C@@H](O)C1C(=O)N2C(C(=O)O)=C(CN)S[C@H]12 (stereo partly specified) | 0.5 | 0.23 | 7.67 | 0.5 |  |
| COc1ccc(CCN(C)CCC[C@](C#N)(c2cc(OC)c(OC)c(OC)c2)C(C)C)cc1OC | 2.04 | 1.75 | 14.3 | 1.8 | 0.07 |
| COc1cc(OC)c(C(=O)CCCN2CCCC2)c(OC)c1 | 3.9 | 1.3 | 5.6 | 3.3 |  |
| N#CN | 0.8 | 0.78 | 17 | 0.43 |  |
| COc1c(OCCCN2CCOCC2)ccc2c1N=C(NC(=O)c1cnc(N)nc1)N1CCN=C21 | 26.8 | 10.3 | 6.42 | 25.2 |  |
| COc1ccc2cc1Oc1ccc(cc1)C[C@H]1c3cc(c(OC)cc3CCN1C)Oc1c(OC)c(OC)c(Br)c3c1[C@H](C2)N(C)CC3 | 88.2 | 51 | 9.6 | 59.4 | 0.22 |
| CCOc1ccc2ccccc2c1C(=O)NC1C(=O)N2C(C(=O)O)C(C)(C)S[C@H]12 (stereo partly specified) | 1.1 | 0.22 | 3.3 | 0.7 | 0.13 |
| CCCC[P@@](=O)(O)CCCN |  |  | 1.56 | 2.1 |  |
| O=C(O)C[C@H](O)C[C@H](O)/C=C/c1c(C2CC2)nc2ccccc2c1-c1ccc(F)cc1 | 2.7 | 0.9 | 5.85 | 4.6 | 0.005 |
| COc1ccc(CCN(C)CCCN2Cc3cc(OC)c(OC)cc3C2=O)cc1OC | 2.62 | 2.4 | 15.7 | 2.04 | 0.12 |
| OC[C@@H]1O[C@@H](n2cnc3c2N=CNC[C@H]3O)C[C@H]1O | 6 | 0.59 | 1.63 | 5.3 |  |
| N=C(N)NC(=O)c1cnn(-c2cccc3ncccc23)c1C1CC1 | 1.3 | 1.7 |  | 2 |  |
| CC/C=C\C/C=C\C/C=C\C/C=C\C/C=C\C/C=C\CCC(=O)OC(C(=O)O[C@H]1C[C@@]2(O)[C@@H](OC(=O)c3ccccc3)[C@@H]3[C@]4(OC(C)=O)CO[C@@H]4C[C@H](O)[C@@]3(C)C(=O)C(OC(C)=O)=C(C1C)C2(C)C)[C@@H](NC(=O)c1ccccc1)c1ccccc1 (stereo partly specified) | 45 |  | 0.025 | 60 | 0.0038 |
| O=C(O)CCCCN(CCc1ccccc1OCc1ccc(CCc2ccccc2)cc1)Cc1ccc(C(=O)O)cc1 | 0.44 | 0.24 | 9 | 0.25 |  |

| Compound | MRT [h] | Vd [L/kg] | clearance [mL/min/kg] | half-life [h] | fraction unbound |
| --- | --- | --- | --- | --- | --- |
| CCCCCCCCCC=CCCC(=O)N=CC(=O)N[C@@H]1[C@@H](O)[C@@H](O)[C@@H](Nc2[nH]cnc3ncnc2-3)O[C@H]1[C@@H](O)CO | 1.1 | 0.17 | 2.7 | 1.3 |  |
| CCC(C)C(=O)O[C@H]1C[C@@H](C)C=C2C=C[C@H](C)[C@H](CC[C@@H](O)C[C@@H](O)CC(=O)O)[C@H]21 (stereo partly specified) | 1.3 | 0.87 | 7.2 | 1.4 | 0.043 |
| CCCCCCCCCCCCCCC[C@@H](O)[C@H](C)N | 8.89 | 30.7 | 57.6 | 29.7 |  |
| CC1(C)O[C@@H]2C[C@H]3[C@@H]4C[C@H](F)C5=CC(=O)C=C[C@@]5(C)[C@H]4[C@@H](O)C[C@]3(C)[C@]2(C(=O)CO)O1 | 1.89 | 1.08 | 9.5 | 1.68 |  |
| C=CCNc1c(O)cc2c(O)c1C=C(C)C[C@H](OC)[C@H](O)[C@@H](C)/C=C(\C)[C@H](OC(N)=O)[C@@H](OC)C=CC=C(C)C(=O)N2 | 3.27 | 2 | 10.2 | 3 |  |
| C[C@H]1CCc2c(N3CCC(O)CC3)c(F)cc3c(=O)c(C(=O)O)cn1c23 | 7.87 | 0.25 | 0.54 | 6.04 |  |
| NC(Cc1ccc(N(CCCl)CCCl)cc1)C(=O)O (stereo unspecified) |  |  |  |  | 0.14 |
| CCOc1ncc(S(=O)(=O)N2CCN(CC)CC2)cc1-c1nc(=O)c2nn(CCOC)c(CC)c2[nH]1 | 2.8 | 2.4 | 14.3 | 4 |  |
| CS(=O)(=O)c1cc(F)cc2c3c(n(Cc4ccc(Cl)cc4)c12)[C@@H](CC(=O)O)CC3 | 13.7 | 1 | 1.21 | 11.8 |  |
| COc1ccccc1Oc1c(NS(=O)(=O)c2ccc(C)cn2)nc(-c2ccncc2)nc1OC | 8.8 | 0.27 | 0.52 | 7.2 |  |
| CON=C(C(=O)NC1C(=O)N2C(C(=O)[O-])=C(C[N+]34CCC(C(N)=O)(CC3)CC4)CSC12)c1nsc(N)n1 (stereo unspecified) | 2.6 | 0.27 | 1.7 | 2.2 |  |
| CC(C)(C)C1(O)CC2OC(=O)CC23C(=O)OC2OC(=O)C(O)C231 (stereo unspecified) | 4 | 2.5 | 10 | 3.2 |  |
| COc1cc(NC(C)CCCN)c2ncccc2c1 (stereo unspecified) | 11 | 4 | 5.8 | 7.1 |  |
| C=C[C@@H]1C[C@]1(NC(=O)C1C[C@@H](Oc2ncc(OC)c3ccc(Cl)cc23)CN1C(=O)C(NC(=O)OC(C)(C)C)C(C)(C)C)C(=O)NS(=O)(=O)C1CC1 (stereo partly specified) | 3.92 | 2.77 | 11.8 | 20 | 0.012 |
| COC(=O)C1[C@@H](O)CC[C@H]2CN3CCc4c([nH]c5ccccc45)[C@@H]3C[C@@H]12 (stereo partly specified) | 0.5 | 0.48 | 14.6 | 1.5 |  |
| CCn1cc(C(=O)O)c(=O)c2cnc(N3CCNCC3)nc21 | 5.15 | 0.88 | 2.84 | 3.69 | 0.7 |
| O=C(O)Cn1c(=O)c(=O)[nH]c2cc([N+](=O)[O-])c(-n3ccnc3)cc21 | 0.6 | 0.19 | 5.3 | 0.78 |  |
| COc1cc([S+](C)O)ccc1-c1nc2ncccc2[n-]1 (stereo unspecified) | 1 | 0.62 | 10 | 0.8 | 0.41 |
| CC(C)(C)c1[nH]cnc1/C=c1\[nH]c(=O)/c(=C/c2ccccc2)[nH]c1=O | 6.7 | 3 | 7.4 | 6.3 |  |
| O=C(NCCO[N+](=O)[O-])c1cccnc1 | 2.7 | 1.4 | 8.9 | 3.6 | 0.76 |
| COc1ccc(CC2c3cc(OC)c(OC)cc3CC[N+]2(C)CCC(=O)OCCCCCOC(=O)CC[N+]2(C)CCc3cc(OC)c(OC)cc3C2Cc2ccc(OC)c(OC)c2)cc1OC (stereo unspecified) | 0.29 | 0.1 | 5.7 | 0.31 | 0.52 |
| CN[C@@H]1[C@@H](O)[C@@H](O[C@@H]2[C@@H](O)[C@H](O[C@H]3OC(CNCCO)=CC[C@H]3N)[C@@H](N)C[C@H]2NC(=O)C(O)CCN)OC[C@]1(C)O (stereo partly specified) | 3.2 | 0.22 | 1.14 | 3.4 | 0.84 |
